Values after ≈ are worked out from the molar mass of the structure shown. Read-outs that look alike come from different tables or passages of the source.
Columns and labels:
[1] = Single ascending dose Phase 1a study, safety and pharmacokinetics in healthy adults
[2] = Multiple ascending dose Phase 1b study, safety and pharmacokinetics in healthy adults; assay type: in vivo, human; conditions: for half-life / Tmax: both sexes, human, plasma, oral
Experimental: The study was performed at Quintiles Phase I Services in Overland Park, KS. […] The secondary objective was to determine the plasma pharmacokinetic characteristics of CRS3123 after multiple oral doses. An exploratory endpoint was the evaluation of the effect of CRS3123 on fecal microbiome.

C. perfringens = C. perfringens clinical isolates, agar dilution; cited from earlier work
C. difficile [3] = conditions: cited from earlier work
C. difficile [4] = conditions: C. difficile clinical isolates, agar dilution; cited from earlier work
[5] = single dose, all TEAEs, combined
[6] = single dose, related to CRS3123 treatment, combined

## O=c1cc(NCCCN[C@@H]2CCOc3c(Br)cc(Br)cc32)[nH]c2ccsc12 [CRS3123]
[1]; single dose
  deaths, SAEs, severe or life-threatening TEAEs: no deaths, SAEs, or severe or life-threatening TEAEs
  moderate TEAEs: 7.4%
[1]; single dose study
  overall safety and tolerability: safe and well-tolerated
[1]; single dose, CRS3123-treated subjects combined
  subjects reporting treatment-emergent adverse events (TEAEs): 93.3%
[1]; [5]
  TEAE frequency: abnormal urine analysis: 20.0%
  TEAE frequency: decreased hemoglobin: 23.3%
  TEAE frequency: headache: 20.0%
  TEAE frequency: positive urine leukocyte esterase: 16.7%
[1]; [6]
  treatment-related TEAE: abnormal urine analysis: 16.7%
  treatment-related TEAE: decreased blood calcium: 13.3%
  treatment-related TEAE: decreased hemoglobin: 16.7%
  treatment-related TEAE: headache: 20.0%
[1]; single oral dose 100-1200 mg
  dose proportionality of systemic exposure: did not appear to be dose-proportional
[1]; single oral dose 100-1200 mg, healthy fasted subjects
  fraction absorbed: low but detectable fraction
[1]; single oral dose, mass spectral analysis
  metabolism: metabolized in the body via glucuronidation
[2]; 200-600 mg BID
  dose proportionality of exposure (Cmax, AUC0-12 Day 1; Cmax,ss, AUC0-τ Day 10): less than proportional to the increase in dose
[2]; following a single dose, across 3 dose groups, read-out: geometric mean t1/2
  half-life: 3.01 to 3.53 h
[2]; following 10 days of twice daily administration, across 3 dose groups, read-out: geometric mean t1/2,ss
  half-life: 4.71 to 6.32 h
[2]; following 10 days of twice daily administration, across 3 dose groups, read-out: median Tmax,ss
  Tmax: 1 to 2 h
[2]; following a single dose, across 3 dose groups (200, 400, 600 mg), read-out: median Tmax
  Tmax: 2 to 3 h
[2]; multiple ascending dose
  QTcF interval: no prolongation
[2]; multiple ascending dose, 200-600 mg BID, 10 days
  overall safety and tolerability: generally safe and well tolerated
[2]; multiple twice daily dosing for 10 days
  accumulation: minimal accumulation
[2]; single and multiple dose
  fate of unchanged drug: retained in the GI tract and excreted in feces
C. perfringens
  MIC90: 0.25 µg/mL (≈ 0.487 µM)
C. difficile [3]
  activity in hamster model of C. difficile infection: active
C. difficile [4]
  MIC90: 1.0 µg/mL (≈ 1.95 µM)
